Data as given in US9586945B2, “Aminochromane, aminothiochromane and amino-1,2,3,4-tetrahydroquinoline derivatives, pharmaceutical compositions containing them, and their use in therapy” (AbbVie Deutschland GmbH & Co. KG, priority 2013, dated 2017).

Key:
[1] = Metabolic stability in human liver microsomes; format: in vitro ADME; conditions: 0.5 μM test substance, NADPH, 37° C., scaled microsomal clearance, examples marked * tested as fumarate salts
Description: Metabolic stability was determined as follows:
0.5 μM test substance was preincubated together with human liver microsomes (0.25 mg of microsomal protein/[…]) in 0.05 M potassium phosphate buffer of pH 7.4 in microtiter plates at 37° C. for 5 min. The reaction was started by adding NADPH (1.0 mM). After 0, 5, 10, 15, 20 and 30 min the reaction was stopped and cooled with twice the amount of quench solution consisting of acetonitrile/methanol 1:1, and containing 0.2 μM carbutamide. The samples were frozen until analyzed. The remaining concentration of undegraded test substance was determined by LC MSMS. The half-life (T1/2) was determined from the gradient of the signal of test substance/unit time plot, al-lowing to calculate the half-life of the test substance, assuming first order kinetics, from the de-crease in the concentration of the compound with time. The microsomal clearance (mClint) was calculated as follows: mClint=((ln(2)/t1/2)/Microsomal Protein Concentration (mg/ml))*1000, leading to the unit of uL/min/mg. The scaled clearance (mClin_scaled) was calculated as mCLint_scaled=m CLint*(Microsomal Yield (mg/kg BW))/1000000*60, leading to the units L/hr/kg. The Microsomal Yield is defined by the specifics of the used microsomes. Calculations were modified from references: Di, The Society for Biomolecular Screening, 2003, 453-462; Obach, DMD, 1999 vol 27. N 11, 1350-1359.

human GlyT1c transporter = human GlyT1c transporter (Homo sapiens (Human), UniProt P48067); assay: Radioligand binding assay using recombinant CHO cell membranes expressing human GlyT1; conditions: examples marked * tested as fumarate salts, read-out: radioligand binding Kiapp
human GlyT1c transporter, sequence (P48067 whole entry): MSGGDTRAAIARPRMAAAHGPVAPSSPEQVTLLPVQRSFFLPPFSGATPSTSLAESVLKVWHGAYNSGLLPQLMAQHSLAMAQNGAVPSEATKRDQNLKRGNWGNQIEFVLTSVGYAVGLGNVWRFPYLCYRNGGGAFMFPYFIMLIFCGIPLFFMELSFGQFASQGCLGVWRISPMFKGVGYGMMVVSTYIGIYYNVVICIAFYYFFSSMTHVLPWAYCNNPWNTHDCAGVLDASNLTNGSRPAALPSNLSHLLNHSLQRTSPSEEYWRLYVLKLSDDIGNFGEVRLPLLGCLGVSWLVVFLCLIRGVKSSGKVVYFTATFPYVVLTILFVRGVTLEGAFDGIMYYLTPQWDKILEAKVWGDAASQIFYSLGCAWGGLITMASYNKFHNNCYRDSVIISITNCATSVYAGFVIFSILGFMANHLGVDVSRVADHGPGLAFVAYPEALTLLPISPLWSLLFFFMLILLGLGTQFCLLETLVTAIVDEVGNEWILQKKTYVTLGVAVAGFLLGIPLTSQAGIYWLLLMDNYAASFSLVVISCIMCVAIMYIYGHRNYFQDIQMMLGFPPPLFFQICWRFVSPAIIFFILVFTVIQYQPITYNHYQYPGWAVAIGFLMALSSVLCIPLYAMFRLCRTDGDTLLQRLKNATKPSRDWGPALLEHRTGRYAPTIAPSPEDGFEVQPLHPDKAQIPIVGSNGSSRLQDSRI

SMILES | human mCl [1] | Ki (human GlyT1c transporter) [µM]
CCCS(=O)(=O)NC1CN(c2ccc3c(c2)C(Cc2ccccc2)C(NC)CO3)C1 (racemic) [Example 11, Cis-N-(1-(4-benzyl-3-(methylamino)chroman-6-yl)azetidin-3-yl)propane-1-sulfonamide] | ≦5 L/h/Kg | ≤ 0.01
CNC1COc2ccc(N3CC(NS(=O)(=O)CC4CC4)C3)cc2C1Cc1ccccc1 (racemic) [Example 13, Cis-N-(1-(4-benzyl-3-(methylamino)chroman-6-yl)azetidin-3-yl)-1-cyclopropylmethanesulfonamide] | ≦5 L/h/Kg | ≤ 0.01
CCn1cc(S(=O)(=O)NC2CN(c3cc4c(cc3F)OC[C@@H](N3CCC3)[C@H]4Cc3ccccc3)C2)nn1 (relative stereo) [Example 7, Cis-N-(1-(3-(azetidin-1-yl)-4-benzyl-7-fluorochroman-6-yl)azetidin-3-yl)-1-ethyl-1H-1,2,3-triazole-4-sulfonamide] |  | ≤ 0.1
CCS(=O)(=O)NC1CN(c2cc3c(cc2F)OC[C@H](NC)[C@@H]3Cc2ccccc2)C1 (relative stereo) [Example 14a, Cis-N-(1-(4-benzyl-7-fluoro-3-(methylamino)chroman-6-yl)azetidin-3-yl)ethanesulfonamide] | ≦5 L/h/Kg | 
CCS(=O)(=O)NC1CN(c2cc3c(cc2F)OC[C@H](NC)[C@H]3Cc2ccccc2)C1 (relative stereo) [Example 14b, trans-N-(1-(4-benzyl-7-fluoro-3-(methylamino)chroman-6-yl)azetidin-3-yl)ethanesulfonamide] | ≦5 L/h/Kg | 
CN[C@H]1COc2cc(F)c(N3CC(NS(=O)(=O)c4cn(C)cn4)C3)cc2[C@H]1Cc1ccccc1 (relative stereo) [Example 15a, Cis-N-(1-(4-benzyl-7-fluoro-3-(methylamino)chroman-6-yl)azetidin-3-yl)-1-methyl-1H-imidazole-4-sulfonamide] | ≦5 L/h/Kg | 
CN[C@H]1COc2cc(F)c(N3CC(NS(=O)(=O)c4cn(C)cn4)C3)cc2[C@@H]1Cc1ccccc1 (relative stereo) [Example 15b, trans-N-(1-(4-benzyl-7-fluoro-3-(methylamino)chroman-6-yl)azetidin-3-yl)-1-methyl-1H-imidazole-4-sulfonamide] | ≦5 L/h/Kg | 
CCCS(=O)(=O)NC1CN(c2cc3c(cc2F)OC[C@H](NC)[C@@H]3Cc2ccccc2)C1 (relative stereo) [Example 16a, Cis-N-(1-(4-benzyl-7-fluoro-3-(methylamino)chroman-6-yl)azetidin-3-yl)propane-1-sulfonamide] | ≦5 L/h/Kg | 
CCCS(=O)(=O)NC1CN(c2cc3c(cc2F)OC[C@H](NC)[C@H]3Cc2ccccc2)C1 (relative stereo) [Example 16b, trans-N-(1-(4-benzyl-7-fluoro-3-(methylamino)chroman-6-yl)azetidin-3-yl)propane-1-sulfonamide] | ≦5 L/h/Kg | 
CN[C@H]1COc2cc(F)c(N3CC(NS(=O)(=O)c4cnn(C)c4)C3)cc2[C@H]1Cc1ccccc1 (relative stereo) [Example 17a, Cis-N-(1-(4-benzyl-7-fluoro-3-(methylamino)chroman-6-yl)azetidin-3-yl)-1-methyl-1H-pyrazole-4-sulfonamide] | ≦5 L/h/Kg | 
CN[C@H]1COc2cc(F)c(N3CC(NS(=O)(=O)c4cnn(C)c4)C3)cc2[C@@H]1Cc1ccccc1 (relative stereo) [Example 17b, trans-N-(1-(4-benzyl-7-fluoro-3-(methylamino)chroman-6-yl)azetidin-3-yl)-1-methyl-1H-pyrazole-4-sulfonamide] | ≦5 L/h/Kg | 
CN[C@H]1COc2cc(F)c(N3CC(NS(=O)(=O)c4cn(C)nn4)C3)cc2[C@H]1Cc1ccccc1 (relative stereo) [Example 18a, Cis-N-(1-(4-benzyl-7-fluoro-3-(methylamino)chroman-6-yl)azetidin-3-yl)-1-methyl-1H-1,2,3-triazole-4-sulfonamide] | ≦50 L/h/Kg | 
CN[C@H]1COc2cc(F)c(N3CC(NS(=O)(=O)c4cn(C)nn4)C3)cc2[C@@H]1Cc1ccccc1 (relative stereo) [Example 18b, trans-N-(1-(4-benzyl-7-fluoro-3-(methylamino)chroman-6-yl)azetidin-3-yl)-1-methyl-1H-1,2,3-triazole-4-sulfonamide] | ≦5 L/h/Kg | 
CN[C@H]1COc2cc(F)c(N3CC(NS(=O)(=O)CC4CC4)C3)cc2[C@H]1Cc1ccccc1 (relative stereo) [Example 19a, Cis-N-(1-(4-benzyl-7-fluoro-3-(methylamino)chroman-6-yl)azetidin-3-yl)-1-cyclopropylmethanesulfonamide] | ≦50 L/h/Kg | 
CN[C@H]1COc2cc(F)c(N3CC(NS(=O)(=O)CC4CC4)C3)cc2[C@@H]1Cc1ccccc1 (relative stereo) [Example 19b, trans-N-(1-(4-benzyl-7-fluoro-3-(methylamino)chroman-6-yl)azetidin-3-yl)-1-cyclopropylmethanesulfonamide] | ≦50 L/h/Kg | 
CCCS(=O)(=O)NC1CN(c2ccc3c(c2)[C@H](Cc2ccccc2)[C@H](N)CO3)C1 (relative stereo) [Example 20, Cis-N-(1-(3-amino-4-benzylchroman-6-yl)azetidin-3-yl)propane-1-sulfonamide] |  | ≤ 0.1
CCS(=O)(=O)NC1CN(c2cc3c(cc2F)OCC(NC)C3Cc2ccccc2)C1 (single isomer, unassigned) [Example 14a, Cis-N-(1-(4-benzyl-7-fluoro-3-(methylamino)chroman-6-yl)azetidin-3-yl)ethanesulfonamide] |  | ≤ 0.1
CCS(=O)(=O)NC1CN(c2cc3c(cc2F)OCC(NC)C3Cc2ccccc2)C1 (single isomer, unassigned) [Example 14b, trans-N-(1-(4-benzyl-7-fluoro-3-(methylamino)chroman-6-yl)azetidin-3-yl)ethanesulfonamide] |  | ≤ 0.1
CNC1COc2cc(F)c(N3CC(NS(=O)(=O)c4cn(C)cn4)C3)cc2C1Cc1ccccc1 (single isomer, unassigned) [Example 15a, Cis-N-(1-(4-benzyl-7-fluoro-3-(methylamino)chroman-6-yl)azetidin-3-yl)-1-methyl-1H-imidazole-4-sulfonamide] |  | ≤ 0.01
CNC1COc2cc(F)c(N3CC(NS(=O)(=O)c4cn(C)cn4)C3)cc2C1Cc1ccccc1 (single isomer, unassigned) [Example 15b, trans-N-(1-(4-benzyl-7-fluoro-3-(methylamino)chroman-6-yl)azetidin-3-yl)-1-methyl-1H-imidazole-4-sulfonamide] |  | ≤ 0.01
CCCS(=O)(=O)NC1CN(c2cc3c(cc2F)OCC(NC)C3Cc2ccccc2)C1 (single isomer, unassigned) [Example 16a, Cis-N-(1-(4-benzyl-7-fluoro-3-(methylamino)chroman-6-yl)azetidin-3-yl)propane-1-sulfonamide] |  | ≤ 0.01
CCCS(=O)(=O)NC1CN(c2cc3c(cc2F)OCC(NC)C3Cc2ccccc2)C1 (single isomer, unassigned) [Example 16b, trans-N-(1-(4-benzyl-7-fluoro-3-(methylamino)chroman-6-yl)azetidin-3-yl)propane-1-sulfonamide] |  | ≤ 0.01
CNC1COc2cc(F)c(N3CC(NS(=O)(=O)c4cnn(C)c4)C3)cc2C1Cc1ccccc1 (single isomer, unassigned) [Example 17a, Cis-N-(1-(4-benzyl-7-fluoro-3-(methylamino)chroman-6-yl)azetidin-3-yl)-1-methyl-1H-pyrazole-4-sulfonamide] |  | ≤ 0.01
CNC1COc2cc(F)c(N3CC(NS(=O)(=O)c4cnn(C)c4)C3)cc2C1Cc1ccccc1 (single isomer, unassigned) [Example 17b, trans-N-(1-(4-benzyl-7-fluoro-3-(methylamino)chroman-6-yl)azetidin-3-yl)-1-methyl-1H-pyrazole-4-sulfonamide] |  | ≤ 0.01
CNC1COc2cc(F)c(N3CC(NS(=O)(=O)c4cn(C)nn4)C3)cc2C1Cc1ccccc1 (single isomer, unassigned) [Example 18a, Cis-N-(1-(4-benzyl-7-fluoro-3-(methylamino)chroman-6-yl)azetidin-3-yl)-1-methyl-1H-1,2,3-triazole-4-sulfonamide] |  | ≤ 0.01
CNC1COc2cc(F)c(N3CC(NS(=O)(=O)c4cn(C)nn4)C3)cc2C1Cc1ccccc1 (single isomer, unassigned) [Example 18b, trans-N-(1-(4-benzyl-7-fluoro-3-(methylamino)chroman-6-yl)azetidin-3-yl)-1-methyl-1H-1,2,3-triazole-4-sulfonamide] |  | ≤ 0.01
CNC1COc2cc(F)c(N3CC(NS(=O)(=O)CC4CC4)C3)cc2C1Cc1ccccc1 (single isomer, unassigned) [Example 19a, Cis-N-(1-(4-benzyl-7-fluoro-3-(methylamino)chroman-6-yl)azetidin-3-yl)-1-cyclopropylmethanesulfonamide] |  | ≤ 0.01
CNC1COc2cc(F)c(N3CC(NS(=O)(=O)CC4CC4)C3)cc2C1Cc1ccccc1 (single isomer, unassigned) [Example 19b, trans-N-(1-(4-benzyl-7-fluoro-3-(methylamino)chroman-6-yl)azetidin-3-yl)-1-cyclopropylmethanesulfonamide] |  | ≤ 0.01
